# pIC50: −log10 of the molar value.
# Tested on: IL-1β production in PMA-differentiated THP-1 cells
# Assay: IL-1β production in PMA-differentiated THP-1 cells stimulated with gramicidin (hTHP-1 assay, 2% fetal bovine serum; Procedures 1-3)
# Assay type: cell-based, human
# Details: Homo sapiens, THP-1, Table B3; hTHP-1 assay containing 2% fetal bovine serum, gramicidin stimulation, IL-1β readout; read-out: hTHP-1 IC50
# Method in brief: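 IL-1β released into supernatants was read by HTRF after 2 h gramicidin (5 μM) challenge. Before challenge, compounds (3-fold dilutions, top 100 μM, 0.37% DMSO) were given 1 h on THP-1 cells differentiated with PMA (20 ng/ml, 16-18 h) and held in 2% FBS medium.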
row,pIC50,Compound
1,6.70 to 7.40,"NS(=O)(=NC(=O)Nc1c2c(cc3c1CC3)CCC2)c1cc2c(s1)CCNC2 (stereo not shown) [Example 715, N′-((2,4,5,6-tetrahydro-1H-cyclobuta[f]inden-3-yl)carbamoyl)-4,5,6,7-tetrahydrothieno[3,2-c]pyridine-2-sulfonimidamide]"
2,6.00 to 6.70,"NS(=O)(=NC(=O)Nc1c2c(cc3c1CC3)CCC2)c1sc(CN2CCC2)cc1F (stereo not shown) [Example 718, 5-(Azetidin-1-ylmethyl)-3-fluoro-N′-((2,4,5,6-tetrahydro-1H-cyclobuta[f]inden-3-yl)carbamoyl)thiophene-2-sulfonimidamide]"
3,7.40 to 8.10,"CNC(c1ccc(S(N)(=O)=NC(=O)Nc2c3c(cc4c2CC4)CCC3)s1)C1CC1 (stereo not shown) [Example 719, 5-(Cyclopropyl(methylamino)methyl)-N′-((2,4,5,6-tetrahydro-1H-cyclobuta[f]inden-3-yl)carbamoyl)thiophene-2-sulfonimidamide]"
4,6.70 to 7.40,"CNCc1csc(S(N)(=O)=NC(=O)Nc2c3c(cc4c2CC4)CCC3)c1 (stereo not shown) [Example 722, 4-((Methylamino)methyl)-N′-((2,4,5,6-tetrahydro-1H-cyclobuta[f]inden-3-yl)carbamoyl)thiophene-2-sulfonimidamide]"
5,6.70 to 7.40,"CNC(c1ccc(S(N)(=O)=NC(=O)Nc2c3c(cc4c2CCC4)CCC3)s1)C1CC1 (stereo not shown) [Example 723, 5-(cyclopropyl(methylamino)methyl)-N′-((1,2,3,5,6,7-hexahydro-s-indacen-4-yl)carbamoyl)thiophene-2-sulfonimidamide]"
6,6.70 to 7.40,"NS(=O)(=NC(=O)Nc1c2c(cc3c1CCC3)CCC2)c1cc2c(s1)CCNC2 (stereo not shown) [Example 724, N′-((1,2,3,5,6,7-hexahydro-s-indacen-4-yl)carbamoyl)-4,5,6,7-tetrahydrothieno[3,2-c]pyridine-2-sulfonimidamide]"
7,6.00 to 6.70,"NS(=O)(=NC(=O)Nc1c2c(cc3c1CCC3)CCC2)c1sc(CNC2CCC2)cc1F (stereo not shown) [Example 726, 5-((Cyclobutylamino)methyl)-3-fluoro-N′-((1,2,3,5,6,7-hexahydro-s-indacen-4-yl)carbamoyl)thiophene-2-sulfonimidamide]"
8,5.30 to 6.00,"CN(Cc1ccc(S(N)(=O)=NC(=O)Nc2c3c(cc4c2CC4)CCC3)c(F)c1)C1CCC1 (stereo not shown) [Example 727, 4-((cyclobutyl(methyl)amino)methyl)-2-fluoro-N′-((2,4,5,6-tetrahydro-1H-cyclobuta[f]inden-3-yl)carbamoyl)benzenesulfonimidamide]"
9,6.00 to 6.70,"NS(=O)(=NC(=O)Nc1c2c(cc3c1CCC3)CCC2)c1ccc(-c2ccccc2CO)s1 (stereo not shown) [Example 728, N′-((1,2,3,5,6,7-hexahydro-s-indacen-4-yl)carbamoyl)-5-(2-(hydroxymethyl)phenyl)thiophene-2-sulfonimidamide]"
10,5.30 to 6.00,"NS(=O)(=NC(=O)Nc1c2c(cc3c1CCC3)CCC2)c1ccc(-c2ccccc2O)s1 (stereo not shown) [Example 729, N′-((1,2,3,5,6,7-hexahydro-s-indacen-4-yl)carbamoyl)-5-(2-hydroxyphenyl)thiophene-2-sulfonimidamide]"

# Same assay, conditions: Homo sapiens, THP-1, hTHP-1 assay containing 2% fetal bovine serum, Table B2, class symbols; read-out: IC50
row,pIC50,Compound
1,6.00 to 6.70,"COCc1nc(C(C)(C)O)sc1S(N)(=O)=NC(=O)Nc1c2c(c(C#N)c3c1CCC3)CCC2 (stereo not shown) [Example 679, N′-((8-cyano-1,2,3,5,6,7-hexahydro-s-indacen-4-yl)carbamoyl)-2-(2-hydroxypropan-2-yl)-4-(methoxymethyl)thiazole-5-sulfonimidamide]"
2,6.00 to 6.70,"CC(C)(O)c1ccnc(S(N)(=O)=NC(=O)Nc2c3c(c(C#N)c4c2CCC4)CCC3)c1 (stereo not shown) [Example 681, N′-((8-cyano-1,2,3,5,6,7-hexahydro-s-indacen-4-yl)carbamoyl)-4-(2-hydroxypropan-2-yl)pyridine-2-sulfonimidamide]"
3,6.00 to 6.70,"COc1ccc(Cn2nc(S(N)(=O)=NC(=O)Nc3c4c(cc5c3CCC5)CCC4)cc2C(C)(C)O)cc1 (stereo not shown) [Example 682, N′-((1,2,3,5,6,7-hexahydro-s-indacen-4-yl)carbamoyl)-5-(2-hydroxypropan-2-yl)-1-(4-methoxybenzyl)-1H-pyrazole-3-sulfonimidamide]"
4,6.00 to 6.70,"C[C@@](O)(COCCOCc1ccccc1)c1ncc(S(N)(=O)=NC(=O)Nc2c3c(cc4c2CCC4)CCC3)s1 (stereo partly drawn) [Example 683, 2-((R)-1-(2-(benzyloxy)ethoxy)-2-hydroxypropan-2-yl)-N′-((1,2,3,5,6,7-hexahydro-s-indacen-4-yl)carbamoyl)thiazole-5-sulfonimidamide]"
5,6.70 to 7.40,"COCCOC[C@@](C)(O)c1ncc(S(N)(=O)=NC(=O)Nc2c3c(cc4c2CCC4)CCC3)s1 (stereo partly drawn) [Example 684, N′-((1,2,3,5,6,7-hexahydro-s-indacen-4-yl)carbamoyl)-2-((R)-2-hydroxy-1-(2-methoxyethoxy)propan-2-yl)thiazole-5-sulfonimidamide]"
6,5.30 to 6.00,"C=CCNCc1ccc([S@](N)(=O)=NC(=O)Nc2c3c(cc4c2CCC4)CCC3)cc1 [Example 699, (R)-4-((allylamino)methyl)-N′-((1,2,3,5,6,7-hexahydro-s-indacen-4-yl)carbamoyl)-benzenesulfonimidamide]"
7,5.30 to 6.00,"CCNCc1ccc([S@](N)(=O)=NC(=O)Nc2c3c(cc4c2CCC4)CCC3)cc1 [Example 700, (R)-4-((ethylamino)methyl)-N′-((1,2,3,5,6,7-hexahydro-s-indacen-4-yl)carbamoyl)-benzenesulfonimidamide]"
8,5.30 to 6.00,"COCCNCc1ccc([S@](N)(=O)=NC(=O)Nc2c3c(cc4c2CCC4)CCC3)cc1 [Example 701, (R)-N′-((1,2,3,5,6,7-hexahydro-s-indacen-4-yl)carbamoyl)-4-(((2-methoxyethyl)amino)-methyl)benzenesulfonimidamide]"
9,5.30 to 6.00,"CCC(C)NCc1ccc([S@](N)(=O)=NC(=O)Nc2c3c(cc4c2CCC4)CCC3)cc1 (stereo partly drawn) [Example 702, (R)-4-((sec-butylamino)methyl)-N′-((1,2,3,5,6,7-hexahydro-s-indacen-4-yl)carbamoyl)-benzenesulfonimidamide]"
10,5.30 to 6.00,"N[S@@](=O)(=NC(=O)Nc1c2c(cc3c1CCC3)CCC2)c1ccc(CNC2CCOCC2)cc1 [Example 703, (R)-N′-((1,2,3,5,6,7-hexahydro-s-indacen-4-yl)carbamoyl)-4-(((tetrahydro-2H-pyran-4-yl)-amino)methyl)benzenesulfonimidamide]"
11,5.30 to 6.00,"N[S@@](=O)(=NC(=O)Nc1c2c(cc3c1CCC3)CCC2)c1ccc(CNC2CCCCCC2)cc1 [Example 704, (R)-4-((cycloheptylamino)methyl)-N′-((1,2,3,5,6,7-hexahydro-s-indacen-4-yl)-carbamoyl)-benzenesulfonimidamide]"
12,5.30 to 6.00,"N[S@@](=O)(=NC(=O)Nc1c2c(cc3c1CCC3)CCC2)c1ccc(CNC2CCC2)cc1 [Example 705, (R)-4-((cyclobutylamino)methyl)-N′-((1,2,3,5,6,7-hexahydro-s-indacen-4-yl)carbamoyl)-benzenesulfonimidamide]"
13,5.30 to 6.00,"CC(C)NCc1ccc([S@](N)(=O)=NC(=O)Nc2c3c(cc4c2CCC4)CCC3)cc1 [Example 706, (R)-N′-((1,2,3,5,6,7-hexahydro-s-indacen-4-yl)carbamoyl)-4-((isopropylamino)methyl)-benzenesulfonimidamide]"
14,5.30 to 6.00,"CN1CCN(Cc2ccc([S@](N)(=O)=NC(=O)Nc3c4c(cc5c3CCC5)CCC4)cc2)CC1 [Example 707, (R)-N′-((1,2,3,5,6,7-hexahydro-s-indacen-4-yl)carbamoyl)-4-((4-methylpiperazin-1-yl)-methyl)benzenesulfonimidamide]"
15,5.30 to 6.00,"N[S@@](=O)(=NC(=O)Nc1c2c(cc3c1CCC3)CCC2)c1ccc(CNCC(F)F)cc1 [Example 708, (R)-4-(((2,2-difluoroethyl)amino)methyl)-N′-((1,2,3,5,6,7-hexahydro-s-indacen-4-yl)-carbamoyl)benzenesulfonimidamide]"
16,6.00 to 6.70,"CN(Cc1ccc([S@](N)(=O)=NC(=O)Nc2c3c(cc4c2CCC4)CCC3)cc1)C1CCC1 [Example 709, (R)-4-((cyclobutyl(methyl)amino)methyl)-N′-((1,2,3,5,6,7-hexahydro-s-indacen-4-yl)-carbamoyl)benzenesulfonimidamide]"
17,4.52 to 5.30,"COc1ccc([C@@H](C)NS(=O)(=NC(=O)Nc2c3c(cc4c2CCC4)CCC3)c2cnc(C(C)(C)O)s2)cc1 (stereo partly drawn) [Example 712, N′-((1,2,3,5,6,7-hexahydro-s-indacen-4-yl)carbamoyl)-2-(2-hydroxypropan-2-yl)-N-((R)-1-(4-methoxyphenyl)ethyl)thiazole-5-sulfonimidamide]"
18,7.40 to 8.10,"C[C@](O)(CO)c1ncc([S@](N)(=O)=NC(=O)Nc2c3c(cc4c2CCC4)CCC3)s1 [Example 713, (R)-2-((S)-1,2-dihydroxypropan-2-yl)-N-((1,2,3,5,6,7-hexahydro-s-indacen-4-yl)carbamoyl)thiazole-5-sulfonimidamide]"
19,7.40 to 8.10,"C[C@@](O)(CO)c1ncc([S@](N)(=O)=NC(=O)Nc2c3c(cc4c2CCC4)CCC3)s1 [Example 714, (R)-2-((R)-1,2-dihydroxypropan-2-yl)-N-((1,2,3,5,6,7-hexahydro-s-indacen-4-yl)carbamoyl)thiazole-5-sulfonimidamide]"

# Same assay, conditions: Table B3; hTHP-1 assay containing 2% fetal bovine serum, gramicidin stimulation, IL-1β readout; read-out: hTHP-1 IC50
row,pIC50,Compound
1,6.00 to 6.70,"CC(NC1CCC1)c1ccc(S(N)(=O)=NC(=O)Nc2c3c(cc4c2CC4)CCC3)c(F)c1 (stereo not shown) [Example 725, 4-(1-(cyclobutylamino)ethyl)-2-fluoro-N′-((2,4,5,6-tetrahydro-1H-cyclobuta[f]inden-3-yl)carbamoyl)benzenesulfonimidamide]"

# Same assay, conditions: hTHP-1 assay containing 2% fetal bovine serum, Table B2, class symbols; read-out: IC50
row,pIC50,Compound
1,7.40 to 8.10,"CC(C)(O)c1cnc(S(N)(=O)=NC(=O)Nc2c3c(cc4c2CCC4=O)CCC3)s1 (stereo not shown) [Example 680, 5-(2-Hydroxypropan-2-yl)-N′-((1-oxo-1,2,3,5,6,7-hexahydro-s-indacen-4-yl)carbamoyl)thiazole-2-sulfonimidamide]"

# Reference: patent US20230051589A1, “COMPOUNDS AND COMPOSITIONS FOR TREATING CONDITIONS ASSOCIATED WITH NLRP ACTIVITY” (Novartis AG, priority 2018, published 2023)
